Test results taken from patent US7928107B2, “Quinazolines useful as modulators of ion channels” (Vertex Pharmaceuticals Incorporated, priority 2004, dated 2011).

Molecular target: NaV 1.8 channel (Homo sapiens, UniProt Q9Y5Y9)
Experiment: Activity against NaV 1.8 channel (optical membrane potential assay)
Type: cell-based
How it was run: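 FRET membrane-potential assay (coumarin CC2-DMPE donor, oxonol DiSBAC2(3) acceptor plus veratridine) on VIPR; compound added with oxonol for 20–30 min before Na+ add-back stimulation. Activity from background-subtracted 460/580 nm ratio change (baseline 2–7 s, response 15–24 s) relative to tetracaine positive and drug-free negative controls.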

Chain of NaV 1.8 channel (Q9Y5Y9 whole entry): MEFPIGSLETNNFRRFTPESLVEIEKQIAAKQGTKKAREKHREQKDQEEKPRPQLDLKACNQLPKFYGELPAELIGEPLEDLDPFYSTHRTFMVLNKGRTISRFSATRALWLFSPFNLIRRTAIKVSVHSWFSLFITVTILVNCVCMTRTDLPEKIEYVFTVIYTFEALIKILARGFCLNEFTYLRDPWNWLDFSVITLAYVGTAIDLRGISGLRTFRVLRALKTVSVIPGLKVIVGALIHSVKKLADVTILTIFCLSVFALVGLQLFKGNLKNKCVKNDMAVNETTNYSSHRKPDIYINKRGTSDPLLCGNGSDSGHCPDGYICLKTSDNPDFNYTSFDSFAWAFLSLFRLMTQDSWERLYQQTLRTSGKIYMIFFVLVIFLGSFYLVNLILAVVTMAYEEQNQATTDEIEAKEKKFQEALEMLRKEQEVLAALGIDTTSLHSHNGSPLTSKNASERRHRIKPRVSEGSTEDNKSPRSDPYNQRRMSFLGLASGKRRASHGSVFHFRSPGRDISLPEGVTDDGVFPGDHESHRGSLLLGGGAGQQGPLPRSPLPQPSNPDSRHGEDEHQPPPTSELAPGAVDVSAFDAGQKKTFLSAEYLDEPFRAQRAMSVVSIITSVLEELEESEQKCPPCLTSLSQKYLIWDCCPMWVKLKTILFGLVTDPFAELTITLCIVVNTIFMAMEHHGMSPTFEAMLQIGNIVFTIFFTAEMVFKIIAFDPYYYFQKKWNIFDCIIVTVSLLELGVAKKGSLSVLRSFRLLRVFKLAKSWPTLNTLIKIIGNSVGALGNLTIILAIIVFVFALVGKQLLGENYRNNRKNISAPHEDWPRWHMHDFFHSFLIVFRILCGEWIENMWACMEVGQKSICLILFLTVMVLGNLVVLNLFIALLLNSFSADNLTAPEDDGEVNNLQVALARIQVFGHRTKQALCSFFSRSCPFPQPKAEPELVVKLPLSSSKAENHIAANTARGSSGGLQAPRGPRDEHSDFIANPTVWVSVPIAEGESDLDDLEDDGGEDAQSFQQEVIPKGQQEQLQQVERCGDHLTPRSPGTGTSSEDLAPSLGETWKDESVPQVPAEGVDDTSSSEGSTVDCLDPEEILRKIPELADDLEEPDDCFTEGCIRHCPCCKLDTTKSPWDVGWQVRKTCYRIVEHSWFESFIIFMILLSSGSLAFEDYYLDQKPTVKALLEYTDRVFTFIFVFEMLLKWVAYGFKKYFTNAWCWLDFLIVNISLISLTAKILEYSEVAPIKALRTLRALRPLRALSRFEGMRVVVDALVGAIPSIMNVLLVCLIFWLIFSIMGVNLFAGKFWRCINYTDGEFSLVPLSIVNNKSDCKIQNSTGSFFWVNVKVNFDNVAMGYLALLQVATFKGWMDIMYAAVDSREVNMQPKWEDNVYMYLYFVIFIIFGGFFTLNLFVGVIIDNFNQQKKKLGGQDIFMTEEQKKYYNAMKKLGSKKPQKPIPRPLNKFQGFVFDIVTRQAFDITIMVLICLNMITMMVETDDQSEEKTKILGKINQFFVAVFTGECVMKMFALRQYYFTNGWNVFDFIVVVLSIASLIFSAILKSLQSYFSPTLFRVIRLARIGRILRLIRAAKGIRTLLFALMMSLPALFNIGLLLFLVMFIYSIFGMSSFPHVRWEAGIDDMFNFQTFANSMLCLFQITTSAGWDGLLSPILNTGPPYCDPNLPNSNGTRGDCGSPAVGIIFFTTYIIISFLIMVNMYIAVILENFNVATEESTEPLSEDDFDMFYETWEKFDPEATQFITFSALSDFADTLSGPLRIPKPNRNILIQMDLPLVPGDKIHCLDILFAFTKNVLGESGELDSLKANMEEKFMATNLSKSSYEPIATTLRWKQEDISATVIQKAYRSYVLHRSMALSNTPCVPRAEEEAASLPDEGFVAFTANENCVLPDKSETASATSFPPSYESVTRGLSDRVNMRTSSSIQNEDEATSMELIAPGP

Row | SMILES | IC50
1 | CCCOC(=O)NC[C@@H]1CCN(c2nc(-c3ccccc3O)nc3cc(C)ccc23)C1 [Example 367, Propyl ((S)-1-(2-(2-hydroxyphenyl)-7-methylquinazolin-4-yl)pyrrolidin-3-yl)methylcarbamate] | < 2 µM
2 | C[C@H](O)CC(=O)N1CCN(c2nc(-c3ccccc3O)nc3ccccc23)CC1 [Example 109, (S)-3-Hydroxy-1-(4-(2-(2-hydroxyphenyl)quinazolin-4-yl)piperazin-1-yl)butan-1-one] | 2 to 10 µM
3 | CCC(O)(CC)C(=O)N1CCN(c2nc(-c3ccccc3O)nc3ccccc23)CC1 [Example 115, 2-Ethyl-2-hydroxy-1-(4-(2-(2-hydroxyphenyl)quinazolin-4-yl)piperazin-1-yl)butan-1-one] | > 10 µM
4 | Cc1ccc2c(N3CCC(NC(=O)OCc4cccnc4)CC3)nc(-c3ccccc3O)nc2c1 [Example 227, (Pyridin-3-yl)methyl 1-(2-(2-hydroxyphenyl)-7-methylquinazolin-4-yl)piperidin-4-ylcarbamate] | > 10 µM
5 | CC(C)C[C@@H](O)C(=O)N1CCN(c2nc(-c3ccccc3O)nc3cc(C(=O)O)ccc23)CC1 [Example 123, 4-[4-((R)-2-Hydroxy-4-methyl-pentanoyl)-piperazin-1-yl]-2-(2-hydroxy-phenyl)-quinazoline-7-carboxylic acid] | > 10 µM
6 | Cc1ccc2c(N3CCC[C@@H](NC(=O)O[C@H]4CCOC4)C3)nc(-c3ccccc3O)nc2c1 [Example 208, (S)-Tetrahydrofuran-3-yl (R)-1-(2-(2-hydroxyphenyl)-7-methylquinazolin-4-yl)piperidin-3-ylcarbamate] | < 2 µM
7 | Cc1ccc2c(N3CC[C@H](CNC(=O)[C@H]4CCCO4)C3)nc(-c3ccccc3O)nc2c1 [Example 308, (2R)-Tetrahydro-N—(((R)-1-(2-(2-hydroxyphenyl)-7-methylquinazolin-4-yl)pyrrolidin-3-yl)methyl)furan-2-carboxamide] | > 10 µM
8 | CC[C@H](O)C(=O)N1CCN(c2nc(-c3ccccc3O)nc3cc(C)ccc23)CC1 [Example 137, (S)-2-Hydroxy-1-(4-(2-(2-hydroxyphenyl)-7-methylquinazolin-4-yl)piperazin-1-yl)butan-1-one] | 2 to 10 µM
9 | Cc1ccc2c(N3CCN(C(=O)OCc4cccnc4)CC3)nc(-c3c(O)cccc3F)nc2c1 [Example 156, (Pyridin-3-yl)methyl 4-(2-(2-fluoro-6-hydroxyphenyl)-7-methylquinazolin-4-yl)piperazine-1-carboxylate] | 2 to 10 µM
10 | CC(=O)C[C@@H](O)C(=O)N1CCN(c2nc(-c3ccccc3O)nc3cc(C)ccc23)CC1 [Example 151, (R)-2-Hydroxy-1-(4-(2-(2-hydroxyphenyl)-7-methylquinazolin-4-yl)piperazin-1-yl)pentan-1,4-dione] | > 10 µM
11 | CC(O)(C(=O)NC1CCN(c2nc(-c3ccccc3O)nc3ccccc23)CC1)C(F)(F)F (stereo not drawn) [Example 239, 2-(Trifluoromethyl)-2-hydroxy-N-(1-(2-(2-hydroxyphenyl)quinazolin-4-yl)piperidin-4-yl)propanamide] | > 10 µM
12 | Cc1ccc2c(N3CCC(NC(=O)COC4CC(C)CCC4C(C)C)CC3)nc(-c3ccccc3O)nc2c1 (stereo not drawn) [Example 222, 2-(2-Isopropyl-5-methylcyclohexyloxy)-N-(1-(2-(2-hydroxyphenyl)-7-methylquinazolin-4-yl)piperidin-4-yl)acetamide] | > 10 µM
13 | Cc1ccc2c(N3CCCC(CNC(=O)C4CC4)C3)nc(-c3ccccc3O)nc2c1 (stereo not drawn) [Example 212, N—((1-(2-(2-Hydroxyphenyl)-7-methylquinazolin-4-yl)piperidin-3-yl)methyl)cyclopropanecarboxamide] | > 10 µM
14 | CC(C)C[C@@H](O)C(=O)N1CCN(c2nc(-c3ccccc3O)nc3ccc(C#N)cc23)CC1 [Example 142, 4-[4-((R)-2-Hydroxy-4-methyl-pentanoyl)-piperazin-1-yl]-2-(2-hydroxy-phenyl)-quinazoline-6-carbonitrile] | 2 to 10 µM
15 | CCCCC(O)C(=O)N1CCN(c2nc(-c3ccccc3O)nc3cc(C)ccc23)CC1 (stereo not drawn) [Example 120] | 2 to 10 µM
16 | Cc1ccc2c(N3CCN(C(=O)C(O)c4ccc(F)cc4)CC3)nc(-c3ccccc3O)nc2c1 (stereo not drawn) [Example 170, 2-(4-Fluorophenyl)-2-hydroxy-1-(4-(2-(2-hydroxyphenyl)-7-methylquinazolin-4-yl)piperazin-1-yl)ethanone] | > 10 µM
17 | Cc1ccc2c(N3CCN(C(=O)[C@H](O)CC(C)C)CC3)nc(-c3ccccc3O)nc2c1 [Example 168, (R)-2-Hydroxy-1-(4-(2-(2-hydroxyphenyl)-7-methylquinazolin-4-yl)piperazin-1-yl)-4-methylpentan-1-one] | 2 to 10 µM
18 | Cc1ccc2c(N3CCN(C(=O)O[C@H]4CCOC4)CC3)nc(-c3c(O)cccc3F)nc2c1 [Example 163, (S)-Tetrahydrofuran-3-yl 4-(2-(2-fluoro-6-hydroxyphenyl)-7-methylquinazolin-4-yl)piperazine-1-carboxylate] | 2 to 10 µM

Row | SMILES | IC50
19 | Cc1ccc2c(N3CC[C@@H](CNC(=O)OCC(C)C)C3)nc(-c3c(O)cccc3F)nc2c1 [Example 372, Isobutyl ((S)-1-(2-(2-fluoro-6-hydroxyphenyl)-7-methylquinazolin-4-yl)pyrrolidin-3-yl)methylcarbamate] | < 2 µM
20 | Cc1ccc2c(N3CCN(C(=O)O[C@@H]4CCOC4)[C@@H](CO)C3)nc(-c3ccccc3O)nc2c1 [Example 149, (2R)-(R)-Tetrahydrofuran-3-yl 2-(hydroxymethyl)-4-(2-(2-hydroxyphenyl)-7-methylquinazolin-4-yl)piperazine-1-carboxylate] | > 10 µM
21 | Cc1ccc2c(N3CCN(C(=O)C(O)c4ccc(F)cc4)CC3)nc(-c3c(O)cccc3F)nc2c1 (stereo not drawn) [Example 167, 1-(4-(2-(2-Fluoro-6-hydroxyphenyl)-7-methylquinazolin-4-yl)piperazin-1-yl)-2-(4-fluorophenyl)-2-hydroxyethanone] | > 10 µM
22 | Cc1ccc2c(N3CCN(C(=O)Oc4ccccc4)CC3CO)nc(-c3ccccc3O)nc2c1 (stereo not drawn) [Example 126, 3-Hydroxymethyl-4-[2-(2-hydroxy-phenyl)-7-methyl-quinazolin-4-yl]-piperazine-1-carboxylic acid phenyl ester] | > 10 µM
23 | O=C(N[C@@H]1CCN(c2nc(-c3ccccc3O)nc3ccc(F)cc23)C1)C1CC1 [Example 329, N—((R)-1-(6-Fluoro-2-(2-hydroxyphenyl)quinazolin-4-yl)pyrrolidin-3-yl)cyclopropanecarboxamide] | 2 to 10 µM
24 | Cc1ccc2c(N3CC(NC(=O)OCC4CCOC4)C3)nc(-c3ccccc3O)nc2c1 (stereo not drawn) [Example 416] | > 10 µM
25 | Cc1ccc2c(N3CC[C@@H](NC(=O)c4cccnc4)C3)nc(-c3ccccc3O)nc2c1 [Example 328, N—((R)-1-(2-(2-Hydroxyphenyl)-7-methylquinazolin-4-yl)pyrrolidin-3-yl)nicotinamide] | > 10 µM
26 | Cc1ccc2c(N3CCN(C(=O)OCC4CCOC4)CC3)nc(-c3c(O)cccc3F)nc2c1 (stereo not drawn) [Example 162, (Tetrahydrofuran-3-yl)methyl 4-(2-(2-fluoro-6-hydroxyphenyl)-7-methylquinazolin-4-yl)piperazine-1-carboxylate] | 2 to 10 µM
27 | CCOC(=O)NC[C@@H]1CCN(c2nc(-c3ccccc3O)nc3cc(C)ccc23)C1 [Example 364, Ethyl ((S)-1-(2-(2-hydroxyphenyl)-7-methylquinazolin-4-yl)pyrrolidin-3-yl)methylcarbamate] | < 2 µM
28 | Cc1ccc2c(N3CC[C@@H](NC(=O)OCC4CCCCO4)C3)nc(-c3ccccc3O)nc2c1 (stereo partly drawn) [Example 314, (Tetrahydro-2H-pyran-2-yl)methyl (R)-1-(2-(2-hydroxyphenyl)-7-methylquinazolin-4-yl)pyrrolidin-3-ylcarbamate] | 2 to 10 µM
29 | Cc1ccc2c(N3CCC(NC(=O)C4CCOCC4)CC3)nc(-c3ccccc3O)nc2c1 [Example 220, Tetrahydro-N-(1-(2-(2-hydroxyphenyl)-7-methylquinazolin-4-yl)piperidin-4-yl)-2H-pyran-4-carboxamide] | > 10 µM
30 | Cc1ccc2c(N3CCCC(C(=O)NCC4CCCO4)C3)nc(-c3ccccc3O)nc2c1 (stereo not drawn) [Example 230, N-((Tetrahydrofuran-2-yl)methyl)-1-(2-(2-hydroxyphenyl)-7-methylquinazolin-4-yl)piperidine-3-carboxamide] | 2 to 10 µM
31 | Cc1ccc2c(N3CCN(C(=O)O[C@H]4COC5OCC[C@@H]54)CC3)nc(-c3ccccc3O)nc2c1 (stereo partly drawn) [Example 190] | 2 to 10 µM
32 | COCCOC(=O)NC1CCN(c2nc(-c3ccccc3O)nc3ccc(F)cc23)CC1 [Example 258, 2-Methoxyethyl 1-(6-fluoro-2-(2-hydroxyphenyl)quinazolin-4-yl)piperidin-4-ylcarbamate] | < 2 µM
33 | Cc1ccc2c(N3CCN(C(=O)[C@@H](O)CC(C)C)CC3)nc(-c3ccccc3O)nc2c1 [Example 144, (S)-2-Hydroxy-1-(4-(2-(2-hydroxyphenyl)-7-methylquinazolin-4-yl)piperazin-1-yl)-4-methylpentan-1-one] | 2 to 10 µM
34 | Cc1ccc2c(N3CCN(C(=O)[C@H](O)CC(C)C)C[C@@H]3C(C)C)nc(-c3ccccc3O)nc2c1 [Example 155, (R)-2-Hydroxy-1-((S)-4-(2-(2-hydroxyphenyl)-7-methylquinazolin-4-yl)-3-isopropylpiperazin-1-yl)-4-methylpentan-1-one] | > 10 µM
35 | Cc1ccc2c(N3CCN(C(=O)[C@@H](O)Cc4cnc[nH]4)CC3)nc(-c3ccccc3O)nc2c1 [Example 141, (S)-2-Hydroxy-1-(4-(2-(2-hydroxyphenyl)-7-methylquinazolin-4-yl)piperazin-1-yl)-3-(1H-imidazol-5-yl)propan-1-one] | > 10 µM
36 | Cc1ccc2c(N3CCN(C(=O)[C@H](O)CC(C)(C)O)CC3)nc(-c3ccccc3O)nc2c1 [Example 164, (R)-2,4-Dihydroxy-1-(4-(2-(2-hydroxyphenyl)-7-methylquinazolin-4-yl)piperazin-1-yl)-4-methylpentan-1-one] | > 10 µM
